Data on three compounds can be found in article PMC5604080, “Genetic and Biochemical Characterization of 2-Chloro-5-Nitrophenol Degradation in a Newly Isolated Bacterium, Cupriavidus sp. Strain CNP-8” (Frontiers in Microbiology, 2017).

The target of one series is T1, MnpC (H6-MnpC) (Cupriavidus sp. CNP-8, UniProt A0A291LMA7).
T1 construct: full-length, pET-28a NdeI-XhoI, His6-tagged (H6-MnpC), E. coli Rosetta(DE3)pLysS, Ni-NTA purified, about 35 kDa, single-subunit dioxygenase
T1 sequence (A0A291LMA7 1-316): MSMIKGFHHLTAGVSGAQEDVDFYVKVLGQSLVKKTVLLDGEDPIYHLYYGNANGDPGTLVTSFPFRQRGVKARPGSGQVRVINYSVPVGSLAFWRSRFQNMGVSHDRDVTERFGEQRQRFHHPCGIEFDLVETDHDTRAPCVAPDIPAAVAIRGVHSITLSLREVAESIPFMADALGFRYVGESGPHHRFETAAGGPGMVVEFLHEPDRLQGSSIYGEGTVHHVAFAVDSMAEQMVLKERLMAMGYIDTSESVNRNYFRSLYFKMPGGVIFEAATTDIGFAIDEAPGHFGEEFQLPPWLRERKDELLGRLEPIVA
Put plainly: spectrophotometric turnover, product with λmax […] nm. The format is biochemical. Conditions: structure analog used in place of unstable aminohydroquinone.

For the next series, the system named is O=[N+]([O-])c1cccc(O)c1. Put plainly: purified protein. To be noted: 0.2 mM NADPH, 50 mM phosphate pH 7.5. In kind it is biochemical, Cupriavidus sp. CNP-8.
The test system of series [1] is O=[N+]([O-])c1ccc(Cl)c(O)c1. Put plainly: purified protein. In kind it is biochemical, Cupriavidus sp. CNP-8. To be noted: 0.2 mM NADPH, 50 mM phosphate pH 7.5.

Regarding `Oc1ccc(O)c(Cl)c1` [chlorohydroquinone], the “spectrophotometric turnover, product with λmax 320 nm” value at MnpC (H6-MnpC) is “H6-MnpC catalyzed rapid degradation of both CHQ and HQ”.

Turning to `Oc1ccc(O)cc1` [hydroquinone], the “spectrophotometric turnover, product with λmax 320 nm” value at MnpC (H6-MnpC) is “H6-MnpC catalyzed rapid degradation of both CHQ and HQ”.

For the compound MnpA (H6-MnpA) (Cupriavidus sp. CNP-8), the Km in the series on O=[N+]([O-])c1cccc(O)c1 came to 3.4 ± 1.63 µM; in series [1], 16.3 ± 2.87 µM.
